Results from ChEMBL document CHEMBL5370531, “Design, synthesis and pharmacological evaluation of 2,3-dihydrobenzofuran IRAK4 inhibitors for the treatment of diffuse large B-cell lymphoma” (Eur J Med Chem, 2023).
Calls of active or inactive are those of the source. The rule behind the calls is not given here.

How the values were obtained:
[1] = biological target: Insulin-like growth factor 1 receptor (Homo sapiens) (UniProt P08069); test: Inhibition of IGFR1 (unknown origin) at 100 nM incubated for 1 hr in presence of ATP by ELISA analysis
Sequence of Insulin-like growth factor 1 receptor (Homo sapiens) (P08069 31-736 limits assumed): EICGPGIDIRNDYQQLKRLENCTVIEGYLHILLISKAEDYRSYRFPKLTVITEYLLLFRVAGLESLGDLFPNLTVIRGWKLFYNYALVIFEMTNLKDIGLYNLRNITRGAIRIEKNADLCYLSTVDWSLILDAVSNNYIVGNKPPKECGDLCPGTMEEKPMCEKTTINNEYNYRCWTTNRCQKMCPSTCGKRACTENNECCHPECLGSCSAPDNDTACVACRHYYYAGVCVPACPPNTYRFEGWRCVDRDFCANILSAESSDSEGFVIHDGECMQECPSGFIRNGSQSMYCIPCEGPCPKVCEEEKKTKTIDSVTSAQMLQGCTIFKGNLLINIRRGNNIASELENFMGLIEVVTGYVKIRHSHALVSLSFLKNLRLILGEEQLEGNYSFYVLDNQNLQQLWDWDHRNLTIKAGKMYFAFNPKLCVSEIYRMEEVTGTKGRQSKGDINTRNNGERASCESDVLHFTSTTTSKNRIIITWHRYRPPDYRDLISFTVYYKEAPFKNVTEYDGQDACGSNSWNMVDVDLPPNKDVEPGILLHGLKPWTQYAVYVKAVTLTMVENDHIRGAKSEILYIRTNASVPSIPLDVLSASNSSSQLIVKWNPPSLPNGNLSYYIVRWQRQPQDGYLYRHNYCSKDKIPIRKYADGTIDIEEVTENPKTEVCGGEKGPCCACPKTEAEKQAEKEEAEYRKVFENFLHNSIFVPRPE
Sequence of Insulin-like growth factor 1 receptor (Homo sapiens) (P08069 741-1367 limits assumed): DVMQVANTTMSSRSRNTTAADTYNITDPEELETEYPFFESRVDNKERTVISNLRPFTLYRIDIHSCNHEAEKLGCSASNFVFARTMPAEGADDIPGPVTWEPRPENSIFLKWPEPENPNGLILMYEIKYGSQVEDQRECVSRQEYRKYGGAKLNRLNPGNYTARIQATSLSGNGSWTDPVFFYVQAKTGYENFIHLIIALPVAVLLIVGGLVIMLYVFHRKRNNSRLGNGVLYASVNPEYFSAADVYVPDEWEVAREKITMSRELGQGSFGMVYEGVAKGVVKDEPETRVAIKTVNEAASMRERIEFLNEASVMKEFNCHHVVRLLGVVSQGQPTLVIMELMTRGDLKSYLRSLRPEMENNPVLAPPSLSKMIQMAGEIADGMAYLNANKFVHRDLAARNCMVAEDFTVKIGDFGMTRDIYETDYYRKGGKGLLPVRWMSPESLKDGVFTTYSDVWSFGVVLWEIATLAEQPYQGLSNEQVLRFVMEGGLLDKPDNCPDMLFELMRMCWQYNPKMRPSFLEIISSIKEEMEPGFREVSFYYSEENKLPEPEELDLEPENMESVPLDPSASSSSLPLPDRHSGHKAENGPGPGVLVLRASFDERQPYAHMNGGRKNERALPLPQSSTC

OCI-Ly10 [2] = test: Induction of apoptosis in human OCILY10 cells assessed as late apoptotic cells at 0.5 uM incubated for 24 hrs by Annexin V-FITC/PI staining based flow cytometry (reference value: 3.71 %); type: functional
[3] = biological target: Tyrosine-protein kinase ABL1 (Homo sapiens) (UniProt P00519); test: Inhibition of ABL (unknown origin) at 100 nM incubated for 1 hr in presence of ATP by ELISA analysis
OCI-Ly10 [4] = test: Synergistic antiproliferative activity against human OCILY10 cells harboring MYD88 L265P assessed as inhibition of cell growth at 100 nM incubated for 72 hrs in presence of BTK inhibitor, ibrutinib at 25 nM by CCK-8 assay (reference value: 21.36 %); type: functional
[5] = biological target: Mast/stem cell growth factor receptor Kit (Homo sapiens) (UniProt P10721); test: Inhibition of C-kit (unknown origin) at 100 nM incubated for 1 hr in presence of ATP by ELISA analysis
Sequence of Mast/stem cell growth factor receptor Kit (Homo sapiens) (P10721 whole entry): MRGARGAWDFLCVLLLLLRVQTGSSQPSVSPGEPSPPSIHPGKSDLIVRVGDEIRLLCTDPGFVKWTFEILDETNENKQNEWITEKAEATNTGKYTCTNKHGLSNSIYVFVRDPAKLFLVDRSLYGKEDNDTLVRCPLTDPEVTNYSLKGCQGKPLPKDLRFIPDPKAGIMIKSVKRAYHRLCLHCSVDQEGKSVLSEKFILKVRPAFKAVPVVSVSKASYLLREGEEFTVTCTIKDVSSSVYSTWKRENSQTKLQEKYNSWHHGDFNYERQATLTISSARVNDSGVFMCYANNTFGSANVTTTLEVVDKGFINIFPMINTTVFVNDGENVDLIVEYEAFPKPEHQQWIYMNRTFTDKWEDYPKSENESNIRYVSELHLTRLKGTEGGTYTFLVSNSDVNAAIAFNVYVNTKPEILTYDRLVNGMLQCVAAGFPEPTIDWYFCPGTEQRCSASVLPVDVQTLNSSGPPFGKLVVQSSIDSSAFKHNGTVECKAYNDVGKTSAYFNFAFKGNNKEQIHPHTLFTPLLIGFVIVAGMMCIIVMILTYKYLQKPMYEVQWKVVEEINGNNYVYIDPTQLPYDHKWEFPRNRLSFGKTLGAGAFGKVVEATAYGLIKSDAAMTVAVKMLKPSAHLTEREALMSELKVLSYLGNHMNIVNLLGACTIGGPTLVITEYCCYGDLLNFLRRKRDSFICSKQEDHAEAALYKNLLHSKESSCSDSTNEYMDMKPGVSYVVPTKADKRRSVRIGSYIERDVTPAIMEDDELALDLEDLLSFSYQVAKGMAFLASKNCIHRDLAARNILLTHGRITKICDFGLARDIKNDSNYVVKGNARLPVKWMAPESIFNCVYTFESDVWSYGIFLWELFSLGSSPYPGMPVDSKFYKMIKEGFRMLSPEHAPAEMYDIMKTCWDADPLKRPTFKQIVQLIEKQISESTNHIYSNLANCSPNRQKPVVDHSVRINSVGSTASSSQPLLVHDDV

OCI-Ly10 [6] = test: Induction of apoptosis in human OCILY10 cells harboring MYD88 L265P assessed as upregulation of PARP cleavage at 0.1 uM in presence of BTK inhibitor, ibrutinib by immunoblotting analysis; type: functional, cell-based
OCI-Ly10 [7] = test: Induction of apoptosis in human OCILY10 cells assessed as early apoptotic cells at 0.2 uM incubated for 48 hrs by Annexin V-FITC/PI staining based flow cytometry (reference value: 5.4 %); type: functional
OCI-Ly10 [8] = test: Induction of apoptosis in human OCILY10 cells harboring MYD88 L265P assessed as upregulation of PARP cleavage at 0.2 uM in presence of BTK inhibitor, ibrutinib by immunoblotting analysis; type: functional, cell-based
OCI-Ly10 [9] = test: Induction of apoptosis in human OCILY10 cells harboring MYD88 L265P assessed as late apoptotic cells at 0.2 uM incubated for 48 hrs in presence of BTK inhibitor, ibrutinib by Annexin V-FITC/PI staining based flow cytometry (reference value: 6.59 %); type: functional
OCI-Ly10 [10] = test: Induction of apoptosis in human OCILY10 cells at 1 uM incubated for 48 hrs by Annexin V-FITC/PI staining based flow cytometry; type: functional
U2932 = test: Cytotoxicity against human U2932 cells assessed as inhibition of cell proliferation incubated for 72 hrs by CCK-8 assay; type: functional, cell-based; conditions: U2932, 72 h
[11] = biological target: Proto-oncogene tyrosine-protein kinase Src (Homo sapiens) (UniProt P12931); test: Inhibition of SRC (unknown origin) at 100 nM incubated for 1 hr in presence of ATP by ELISA analysis
Sequence of Proto-oncogene tyrosine-protein kinase Src (Homo sapiens) (P12931 2-536 limits assumed): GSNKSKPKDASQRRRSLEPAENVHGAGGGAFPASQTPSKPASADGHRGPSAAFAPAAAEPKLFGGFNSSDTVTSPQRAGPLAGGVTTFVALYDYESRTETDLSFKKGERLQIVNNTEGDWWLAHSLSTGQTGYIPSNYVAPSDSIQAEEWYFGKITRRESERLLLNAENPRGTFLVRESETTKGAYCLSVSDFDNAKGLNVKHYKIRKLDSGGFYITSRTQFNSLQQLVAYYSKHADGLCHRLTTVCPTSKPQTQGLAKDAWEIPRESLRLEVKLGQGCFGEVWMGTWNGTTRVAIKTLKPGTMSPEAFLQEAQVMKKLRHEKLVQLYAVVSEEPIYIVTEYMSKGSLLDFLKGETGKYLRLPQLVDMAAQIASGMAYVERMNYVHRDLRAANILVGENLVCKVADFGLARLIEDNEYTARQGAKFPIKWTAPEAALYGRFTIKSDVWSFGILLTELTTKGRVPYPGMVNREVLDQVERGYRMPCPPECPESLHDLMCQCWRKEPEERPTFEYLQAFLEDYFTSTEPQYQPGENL

OCI-Ly10 [12] = test: Induction of apoptosis in human OCILY10 cells at 0.5 uM incubated for 24 hrs by Annexin V-FITC/PI staining based flow cytometry; type: functional
OCI-Ly10 [13] = test: Synergistic antiproliferative activity against human OCILY10 cells harboring MYD88 L265P assessed as inhibition of cell growth at 100 nM incubated for 72 hrs in presence of BTK inhibitor, ibrutinib at 6.2 nM by CCK-8 assay (reference value: 21.36 %); type: functional
OCI-Ly10 [14] = test: Synergistic antiproliferative activity against human OCILY10 cells harboring MYD88 L265P assessed as inhibition of cell growth at 100 nM incubated for 72 hrs in presence of BTK inhibitor, ibrutinib at 3.1 nM by CCK-8 assay (reference value: 21.36 %); type: functional
OCI-Ly10 [15] = test: Synergistic antiproliferative activity against human OCILY10 cells harboring MYD88 L265P assessed as inhibition of cell growth at 400 nM incubated for 72 hrs in presence of BTK inhibitor, ibrutinib at 6.2 nM by CCK-8 assay (reference value: 34.46 %); type: functional
OCI-Ly10 [16] = test: Synergistic antiproliferative activity against human OCILY10 cells harboring MYD88 L265P assessed as inhibition of cell growth at 400 nM incubated for 72 hrs in presence of BTK inhibitor, ibrutinib at 3.1 nM by CCK-8 assay (reference value: 34.46 %); type: functional
OCI-Ly10 [17] = test: Synergistic antiproliferative activity against human OCILY10 cells harboring MYD88 L265P assessed as inhibition of cell growth at 200 nM incubated for 72 hrs in presence of BTK inhibitor, ibrutinib at 1.6 nM by CCK-8 assay (reference value: 26.07 %); type: functional
OCI-Ly10 [18] = test: Induction of apoptosis in human OCILY10 cells assessed as late apoptotic cells at 0.5 uM incubated for 48 hrs by Annexin V-FITC/PI staining based flow cytometry (reference value: 3.54 %); type: functional
[19] = biological target: Proto-oncogene tyrosine-protein kinase receptor Ret (Homo sapiens) (UniProt P07949); test: Inhibition of RET (unknown origin) at 100 nM incubated for 1 hr in presence of ATP by ELISA analysis relative to control
OCI-Ly10 [20] = test: Synergistic antiproliferative activity against human OCILY10 cells harboring MYD88 L265P assessed as inhibition of cell growth at 1600 nM incubated for 72 hrs in presence of BTK inhibitor, ibrutinib at 1.6 nM by CCK-8 assay (reference value: 64.69 %); type: functional
OCI-Ly10 [21] = test: Induction of apoptosis in human OCILY10 cells assessed as late apoptotic cells at 0.2 uM incubated for 48 hrs by Annexin V-FITC/PI staining based flow cytometry (reference value: 3.54 %); type: functional
[22] = biological target: Fibroblast growth factor receptor 4 (Homo sapiens) (UniProt P22455); test: Inhibition of FGFR4 (unknown origin) at 100 nM incubated for 1 hr in presence of ATP by ELISA analysis
Sequence of Fibroblast growth factor receptor 4 (Homo sapiens) (P22455 22-802 limits assumed): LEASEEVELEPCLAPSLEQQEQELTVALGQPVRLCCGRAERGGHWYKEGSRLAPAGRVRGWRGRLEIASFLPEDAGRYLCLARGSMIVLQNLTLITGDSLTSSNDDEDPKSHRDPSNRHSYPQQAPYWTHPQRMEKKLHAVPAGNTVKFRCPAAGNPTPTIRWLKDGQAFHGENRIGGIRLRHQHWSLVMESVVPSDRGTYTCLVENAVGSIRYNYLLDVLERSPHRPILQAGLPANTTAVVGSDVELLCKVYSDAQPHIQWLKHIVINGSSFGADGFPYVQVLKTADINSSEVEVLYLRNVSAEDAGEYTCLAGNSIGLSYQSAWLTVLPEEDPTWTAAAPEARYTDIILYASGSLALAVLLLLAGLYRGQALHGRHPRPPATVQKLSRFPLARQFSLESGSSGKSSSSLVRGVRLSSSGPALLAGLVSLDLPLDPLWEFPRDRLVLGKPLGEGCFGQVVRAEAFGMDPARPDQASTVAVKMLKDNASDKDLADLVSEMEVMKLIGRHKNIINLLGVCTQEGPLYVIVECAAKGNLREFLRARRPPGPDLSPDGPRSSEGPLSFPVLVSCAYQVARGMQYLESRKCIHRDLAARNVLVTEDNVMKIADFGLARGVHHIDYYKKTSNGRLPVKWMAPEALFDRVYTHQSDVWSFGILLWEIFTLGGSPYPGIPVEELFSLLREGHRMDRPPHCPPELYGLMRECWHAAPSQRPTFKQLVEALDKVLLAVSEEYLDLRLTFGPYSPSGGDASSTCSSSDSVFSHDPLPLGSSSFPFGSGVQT

[23] = biological target: Vascular endothelial growth factor receptor 1 (Homo sapiens) (UniProt P17948); test: Inhibition of VEGFR1 (unknown origin) at 100 nM incubated for 1 hr in presence of ATP by ELISA analysis
Sequence of Vascular endothelial growth factor receptor 1 (Homo sapiens) (P17948 whole entry): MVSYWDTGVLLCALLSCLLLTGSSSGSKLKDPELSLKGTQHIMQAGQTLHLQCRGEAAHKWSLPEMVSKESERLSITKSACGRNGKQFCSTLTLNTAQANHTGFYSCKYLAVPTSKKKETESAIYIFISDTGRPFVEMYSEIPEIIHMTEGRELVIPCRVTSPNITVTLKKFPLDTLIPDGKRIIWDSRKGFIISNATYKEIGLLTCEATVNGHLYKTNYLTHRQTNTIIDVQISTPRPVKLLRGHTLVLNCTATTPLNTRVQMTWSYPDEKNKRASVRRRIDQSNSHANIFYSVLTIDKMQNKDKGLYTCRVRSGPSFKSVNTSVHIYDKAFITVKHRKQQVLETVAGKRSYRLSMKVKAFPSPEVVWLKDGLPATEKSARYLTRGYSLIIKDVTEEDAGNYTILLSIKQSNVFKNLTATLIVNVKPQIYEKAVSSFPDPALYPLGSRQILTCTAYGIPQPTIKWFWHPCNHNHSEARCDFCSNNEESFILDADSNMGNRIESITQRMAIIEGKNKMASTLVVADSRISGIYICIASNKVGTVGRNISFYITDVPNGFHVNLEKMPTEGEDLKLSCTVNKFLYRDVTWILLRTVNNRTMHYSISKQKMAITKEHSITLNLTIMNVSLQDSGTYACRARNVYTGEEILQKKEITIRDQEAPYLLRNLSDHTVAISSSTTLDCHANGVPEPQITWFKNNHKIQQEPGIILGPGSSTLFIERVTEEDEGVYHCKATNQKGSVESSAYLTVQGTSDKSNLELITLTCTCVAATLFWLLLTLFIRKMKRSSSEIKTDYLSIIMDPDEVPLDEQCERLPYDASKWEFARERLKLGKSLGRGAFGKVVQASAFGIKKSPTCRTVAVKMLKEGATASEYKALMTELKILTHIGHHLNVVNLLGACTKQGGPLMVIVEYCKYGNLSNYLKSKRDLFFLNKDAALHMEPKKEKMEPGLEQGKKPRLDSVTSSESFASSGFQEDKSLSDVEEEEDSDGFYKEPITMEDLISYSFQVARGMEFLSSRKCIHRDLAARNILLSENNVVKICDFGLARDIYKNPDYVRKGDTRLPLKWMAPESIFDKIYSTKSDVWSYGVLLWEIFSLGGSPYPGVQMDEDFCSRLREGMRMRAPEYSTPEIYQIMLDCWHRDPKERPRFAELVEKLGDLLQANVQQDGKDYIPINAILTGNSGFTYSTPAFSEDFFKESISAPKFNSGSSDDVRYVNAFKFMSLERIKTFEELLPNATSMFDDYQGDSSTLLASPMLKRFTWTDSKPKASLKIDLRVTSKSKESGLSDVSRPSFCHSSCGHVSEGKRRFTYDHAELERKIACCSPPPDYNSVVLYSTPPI

[24] = biological target: Ephrin type-A receptor 2 (Homo sapiens) (UniProt P29317); test: Inhibition of EPHA2 (unknown origin) at 100 nM incubated for 1 hr in presence of ATP by ELISA analysis
[25] = biological target: Receptor tyrosine-protein kinase erbB-4 (Homo sapiens) (UniProt Q15303); test: Inhibition of ERBB4 (unknown origin) at 100 nM incubated for 1 hr in presence of ATP by ELISA analysis
OCI-Ly10 [26] = test: Induction of apoptosis in human OCILY10 cells assessed as early apoptotic cells at 0.1 uM incubated for 24 hrs by Annexin V-FITC/PI staining based flow cytometry (reference value: 10 %); type: functional
OCI-Ly10 [27] = test: Synergistic antiproliferative activity against human OCILY10 cells harboring MYD88 L265P assessed as inhibition of cell growth at 100 nM incubated for 72 hrs in presence of BTK inhibitor, ibrutinib at 1.6 nM by CCK-8 assay (reference value: 21.36 %); type: functional
OCI-Ly10 [28] = test: Synergistic antiproliferative activity against human OCILY10 cells harboring MYD88 L265P assessed as inhibition of cell growth at 100 nM incubated for 72 hrs in presence of BTK inhibitor, ibrutinib at 12.5 nM by CCK-8 assay (reference value: 21.36 %); type: functional

Q: With `Cn1cc(-c2cc3c(cc2NC(=O)c2coc(-c4ccnc(N)c4)n2)CC(C)(C)O3)cn1` as the molecule, how does the inhibition [1] read?
A: Its inhibition is “inactive”.

Q: What about the Activity (OCI-Ly10 [2]) of the same molecule?
A: The Activity was 25.2%.

Q: What about the inhibition [3] of the same molecule?
A: Its inhibition is “inactive”.

Q: And the inhibition at 0.1 µM (OCI-Ly10 [4])?
A: The inhibition at 0.1 µM was 72.2%.

Q: What about the inhibition [5] of the same molecule?
A: Its inhibition is “inactive”.

Q: And the Activity (OCI-Ly10 [6])?
A: The Activity was “Active”.

Q: And the Activity (OCI-Ly10 [7])?
A: The Activity was 21.2%.

Q: And the Activity (OCI-Ly10 [8])?
A: Its Activity is “Active”.

Q: And the Activity (OCI-Ly10 [9])?
A: The Activity was 33.2%.

Q: What about the Activity (OCI-Ly10 [10]) of the same molecule?
A: Its Activity is 92.3%.

Q: What about the IC50 (U2932) of the same molecule?
A: The IC50 was 1.25 µM.

Q: What about the inhibition [11] of the same molecule?
A: Its inhibition is “inactive”.

Q: What about the Activity (OCI-Ly10 [12]) of the same molecule?
A: The Activity was 48.3%.

Q: What about the inhibition at 0.1 µM (OCI-Ly10 [13]) of the same molecule?
A: Its inhibition at 0.1 µM is 44.9%.

Q: What about the inhibition at 0.1 µM (OCI-Ly10 [14]) of the same molecule?
A: The inhibition at 0.1 µM was 21.8%.

Q: What about the inhibition at 0.4 µM (OCI-Ly10 [15]) of the same molecule?
A: The inhibition at 0.4 µM was 67.2%.

Q: What about the inhibition at 0.4 µM (OCI-Ly10 [16]) of the same molecule?
A: Its inhibition at 0.4 µM is 42.3%.

Q: And the inhibition at 0.2 µM (OCI-Ly10 [17])?
A: Its inhibition at 0.2 µM is 26.9%.

Q: And the Activity (OCI-Ly10 [18])?
A: Its Activity is 26.8%.

Q: And the inhibition [19]?
A: Its inhibition is over 50%.

Q: And the inhibition at 1.6 µM (OCI-Ly10 [20])?
A: Its inhibition at 1.6 µM is 70.6%.

Q: And the Activity (OCI-Ly10 [21])?
A: Its Activity is 13.2%.

Q: And the inhibition [22]?
A: The inhibition was “inactive”.

Q: And the inhibition [23]?
A: The inhibition was “inactive”.

Q: What about the inhibition [24] of the same molecule?
A: The inhibition was “inactive”.

Q: What about the inhibition [25] of the same molecule?
A: Its inhibition is “inactive”.

Q: And the Activity (OCI-Ly10 [26])?
A: Its Activity is 9.32%.

Q: What about the inhibition at 0.1 µM (OCI-Ly10 [27]) of the same molecule?
A: Its inhibition at 0.1 µM is 23.7%.

Q: What about the inhibition at 0.1 µM (OCI-Ly10 [28]) of the same molecule?
A: The inhibition at 0.1 µM was 62.1%.
